From article PMC10877733, “Discovery and Characterization of VU0542270, the First Selective Inhibitor of Vascular Kir6.1/SUR2B KATP Channels” (Molecular Pharmacology, 2024) come the findings set out here.

Common to all, as to format: cell-based
The test system of one assay is channels containing SUR1. The experiment in a line: Thallium flux, Kir6.1 or Kir6.2 co-expressed with SUR1 in transfected HEK-293 cells. Conditions: 3 µM, Fig. 4D. An excerpt: The pcDNA3.1-SUR2B plasmid was generously provided by Dr. Colin Nichols (Washington University). The pcDNA5/TO-Kir6.1 plasmid was synthesized by GenScript. Stably transfected tetracycline-regulated expression human embryonic kidney-293 (T-Rex-HEK293) cells expressing both plasmids were generated by cotransfecting cells with Lipofectamine LTX followed by antibiotic selection and clonal selection using the thallium flux assay described below. Monoclonal lines expressing robust pinacidil-activated thallium flux were selected for high KATP channel activity. T-Rex-HEK293 cells expressing Kir6.2/SUR1 were created as described previously ([Raphemot et al., 2014]). The cell culture media contained Dulbecco’s modified Eagle’s medium (Gibco, 11965-092) supplied with heat-inactivated FBS (bio-techne, Minneapolis, MN S11150H,10%), Blasticidine HCl (Gibco, A11139-03, 10 ug/mL), Penicillin-Streptomycin (Gibco, 15140-122, 2 mM), G418 Sulfate (CORNING, Corning, NY, 30-234-CR, 1 mg/mL), and Hygromycin B (Invitrogen, Carlsbad, CA, 10687-010, 250 ug/mL). […]
Quantitative thallium flux assays of Kir6.1/SUR2B activity were performed essentially as described previously for Kir6.2/SUR1 ([Raphemot et al., 2014]; [Kharade et al., 2019]). […] Dye-loaded cells were washed with assay buffer and transferred to a Panoptic Kinetic Imaging Plate Reader (Wavefront Bioscience, Franklin, TN). […]

A further assay has as its target T1, Kir2.3 (Homo sapiens, UniProt P48050).
T1 construct: expressed in transfected cells
T1 sequence (P48050 1-445): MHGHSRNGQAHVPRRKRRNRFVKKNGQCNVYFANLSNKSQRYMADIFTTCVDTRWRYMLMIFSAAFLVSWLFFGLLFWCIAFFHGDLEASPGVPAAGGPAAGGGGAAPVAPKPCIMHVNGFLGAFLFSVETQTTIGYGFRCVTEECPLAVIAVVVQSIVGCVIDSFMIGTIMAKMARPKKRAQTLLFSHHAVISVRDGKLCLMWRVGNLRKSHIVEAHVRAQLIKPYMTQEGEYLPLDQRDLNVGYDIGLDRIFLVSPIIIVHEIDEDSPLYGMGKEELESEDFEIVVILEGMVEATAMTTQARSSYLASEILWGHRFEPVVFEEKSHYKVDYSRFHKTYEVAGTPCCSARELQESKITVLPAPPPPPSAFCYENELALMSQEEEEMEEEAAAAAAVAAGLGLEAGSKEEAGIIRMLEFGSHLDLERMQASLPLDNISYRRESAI
Kind of assay: Thallium flux selectivity assay Kir2.3. How it is done:
Quantitative thallium flux assays of Kir6.1/SUR2B activity were performed essentially as described previously for Kir6.2/SUR1 ([Raphemot et al., 2014]; [Kharade et al., 2019]). Stable T-Rex-HEK293-Kir6.1/SUR2B cells or transiently transfected HEK293T cells were plated in polyamine-coated, clear-bottomed, black-walled 384-well plates and were cultured (37°C/5% CO2) overnight in Dulbecco’s modified Eagle’s medium (Gibco, Carlsbad, CA, 11995-065) containing 10% FBS (2 mM Penicillin-Streptomycin). The following day, cells were washed with assay buffer (i.e., Hanks’ balanced salt solution/20 mM HEPES) and loaded for 1 hour with thallium sensor dye Brilliant Thallium (Ion Bioscience, San Marcos, TX) at room temperature. Dye-loaded cells were washed with assay buffer and transferred to a Panoptic Kinetic Imaging Plate Reader (Wavefront Bioscience, Franklin, TN). Control and test compound treatments were for 4 minutes prior to adding 0.5 mM chloride-free thallium stimulus buffer (Ion Bioscience) to initiate thallium flux. […] Selectivity assays against other Kir channels were performed essentially as described previously ([Kharade et al., 2018]; [McClenahan et al., 2022]).

The next assay concerns the target T2, Kir6.1/SUR2B (Homo sapiens, UniProt O60706).
T2 construct: expressed in transfected cells; also transiently transfected HEK293T
Kind of assay: Whole-cell patch clamp electrophysiology, T-Rex-HEK293-Kir6.1/SUR2B cells. How it is done:
T-Rex-HEK293-Kir6.1/SUR2B cells were plated into tissue culture-treated 35-mm polystyrene dishes at a density of 250,000 cells and cultured in a 5% CO2 incubator at 37°C. Whole-cell patch-clamp recordings were performed 48 hours after plating. Cells were dissociated on the experiment day and plated on poly-L-lysine–coated coverslips and allowed to recover for at least 1 hour in a 37°C/5% CO2 incubator before beginning experiments. Patch electrodes (2 to 3 MΩ) were filled with an intracellular solution containing 130 mM KCl, 2 mM MgCl2, 1 mM EGTA, 20 mM HEPES-free acid, and 2 mM Na2ATP (Roche Diagnostics, Risch-Rotkreuz, Switzerland), pH 7.3, titrated with KOH, and osmolarity 275 mOsmol/kg of water (adjusted with sucrose). The standard bath solution contained 135 mM NaCl, 5 mM KCl, 2 mM CaCl2, 1 mM MgCl2, 5 mM glucose, and 10 mM HEPES-free acid, pH 7.4, titrated with NaOH. Serial dilutions of compounds were first made in DMSO and then in bath solution so that the final DMSO concentration was 0.1% v/v across all test doses. Macroscopic currents were recorded under voltage-clamp conditions using an Axopatch 200B Amplifier (Molecular Devices, Sunnyvale, CA). Data were collected at 5 kHz and filtered at 1 kHz. […] IC50 values were determined by fitting the Hill equation to CRCs using variable-slope nonlinear regression analyses. […]
(Patch clamp records ionic current or voltage across a cell membrane.)

Each structure is given as a SMILES string. pIC50: −log10 of the molar value. Where “and” joins values, the source holds several entries; their conditions need not be identical. Equal values may be shown once. Some results are limits rather than exact numbers.

T2 sequence (O60706 1-1549 isoform O60706-2, species assumed): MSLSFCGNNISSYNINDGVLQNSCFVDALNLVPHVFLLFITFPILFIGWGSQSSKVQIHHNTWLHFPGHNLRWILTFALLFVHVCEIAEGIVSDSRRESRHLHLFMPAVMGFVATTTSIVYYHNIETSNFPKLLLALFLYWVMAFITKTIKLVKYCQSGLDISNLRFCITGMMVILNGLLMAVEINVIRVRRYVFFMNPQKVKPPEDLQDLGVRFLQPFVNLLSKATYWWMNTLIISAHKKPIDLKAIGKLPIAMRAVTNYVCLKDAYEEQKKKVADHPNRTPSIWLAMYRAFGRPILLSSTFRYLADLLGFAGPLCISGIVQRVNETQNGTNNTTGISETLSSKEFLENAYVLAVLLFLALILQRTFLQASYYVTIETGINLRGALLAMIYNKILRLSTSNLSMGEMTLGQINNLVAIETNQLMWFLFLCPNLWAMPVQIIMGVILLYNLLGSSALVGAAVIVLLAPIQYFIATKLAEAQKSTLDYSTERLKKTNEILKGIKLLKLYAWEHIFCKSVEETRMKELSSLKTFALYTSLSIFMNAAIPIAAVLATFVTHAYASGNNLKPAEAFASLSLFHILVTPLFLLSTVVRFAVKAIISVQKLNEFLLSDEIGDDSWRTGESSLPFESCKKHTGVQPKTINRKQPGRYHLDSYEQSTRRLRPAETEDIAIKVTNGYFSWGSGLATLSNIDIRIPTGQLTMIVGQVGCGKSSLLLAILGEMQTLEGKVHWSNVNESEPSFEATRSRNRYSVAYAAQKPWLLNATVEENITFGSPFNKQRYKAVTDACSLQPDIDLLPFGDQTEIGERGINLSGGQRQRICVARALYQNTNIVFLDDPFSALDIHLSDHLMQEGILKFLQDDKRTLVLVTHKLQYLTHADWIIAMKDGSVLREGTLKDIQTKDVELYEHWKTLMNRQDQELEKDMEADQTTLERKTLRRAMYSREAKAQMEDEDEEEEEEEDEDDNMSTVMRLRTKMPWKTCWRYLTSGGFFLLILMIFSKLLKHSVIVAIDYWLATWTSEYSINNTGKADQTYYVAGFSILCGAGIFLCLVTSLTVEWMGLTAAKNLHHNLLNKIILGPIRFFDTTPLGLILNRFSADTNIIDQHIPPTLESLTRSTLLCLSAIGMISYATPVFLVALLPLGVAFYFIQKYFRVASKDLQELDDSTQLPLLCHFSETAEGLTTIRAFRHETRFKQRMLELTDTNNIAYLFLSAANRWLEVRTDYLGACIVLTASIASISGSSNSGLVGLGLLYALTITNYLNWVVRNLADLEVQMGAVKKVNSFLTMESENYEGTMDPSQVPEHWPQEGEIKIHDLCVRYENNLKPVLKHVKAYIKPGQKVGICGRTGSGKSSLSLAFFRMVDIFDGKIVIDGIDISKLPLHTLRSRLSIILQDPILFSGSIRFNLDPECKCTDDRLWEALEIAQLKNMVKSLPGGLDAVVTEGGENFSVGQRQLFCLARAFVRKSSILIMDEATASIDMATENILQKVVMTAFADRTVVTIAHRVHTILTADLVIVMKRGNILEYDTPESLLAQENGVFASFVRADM
T2 sequence (Q15842 whole entry partner, species assumed): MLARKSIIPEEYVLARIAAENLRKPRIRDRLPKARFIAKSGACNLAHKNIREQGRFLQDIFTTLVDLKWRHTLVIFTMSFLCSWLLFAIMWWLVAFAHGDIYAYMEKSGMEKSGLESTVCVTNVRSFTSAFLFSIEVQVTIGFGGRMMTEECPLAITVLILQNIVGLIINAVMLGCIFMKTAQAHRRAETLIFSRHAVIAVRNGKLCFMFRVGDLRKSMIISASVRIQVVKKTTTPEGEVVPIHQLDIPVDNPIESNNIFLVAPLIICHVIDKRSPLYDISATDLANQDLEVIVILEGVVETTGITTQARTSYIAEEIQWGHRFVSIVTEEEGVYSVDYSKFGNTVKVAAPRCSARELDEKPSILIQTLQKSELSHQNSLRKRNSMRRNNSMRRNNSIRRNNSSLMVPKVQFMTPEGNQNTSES

Consider `Cc1nc(-c2cccs2)sc1CNC(=O)Nc1cccs1` [VU0542270], for which the “inhibition of channels containing SUR1” value in the assay on channels containing SUR1 is listed as “not channels containing SUR1”. In addition, the pIC50 against Kir2.3 was under 4.52; at Kir6.1/SUR2B (1 µM pinacidil-activated, normalized to maximal inhibition by 10 µM VU0542270, read-out: Kir6.1/SUR2B IC50, whole-cell current), ~6.55 and 6.56. The “inhibition of KATP current” value at Kir6.1/SUR2B (10 µM compound in continued presence of 1 µM pinacidil) was “complete inhibition”.
